Source: patent US20240246941A1, “SUBSTITUTED 4-(3-AMINOPROP-1-YL)AMINOQUINOLINE ANALOGS AS MODULATORS OF MELANOMA-ASSOCIATED ANTIGEN 11 UBIQUITIN LIGASE” (ST. JUDE CHILDREN'S RESEARCH HOSPITAL, INC., priority 2020, published 2024)

target: interaction between GST-MAGEA11 MHD and FAM-PCF11_4 peptide (MAGE-A11:PCF11) (Homo sapiens (Human), UniProt P43364); assay: TR-FRET dose response competition assay for disruption of MAGE-A11:PCF11 binding; conditions: Dose response TR-FRET screening of nine scaffold groups against MAGE-A11:PCF11; read-out: consensus IC50
Procedure, shortened: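 Competition TR-FRET at room temperature in 50 mM Tris pH 7.5, 20 mM MgCl2, 0.1 mg/ml BSA, 1 mM DTT: final 5 nM GST-MAGEA11 MHD, 5 nM Tb-anti-GST, 200 nM FAM-PCF11_4, 90 min. Ratio 520/490 nm converted to % inhibition; IC50 from sigmoidal fit.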

Chain of interaction between GST-MAGEA11 MHD and FAM-PCF11_4 peptide (MAGE-A11:PCF11) (P43364 218-429): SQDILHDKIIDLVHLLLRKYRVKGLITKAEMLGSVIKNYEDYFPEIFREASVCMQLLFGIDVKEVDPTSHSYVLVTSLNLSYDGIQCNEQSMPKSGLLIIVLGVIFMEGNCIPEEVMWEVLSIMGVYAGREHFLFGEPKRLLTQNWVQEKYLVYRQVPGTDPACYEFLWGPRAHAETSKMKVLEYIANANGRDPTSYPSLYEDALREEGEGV

Row | Structure (SMILES) | IC50
1 | c1ccc(Cc2ccc3c(NCCCNCc4cccc5c4OCO5)ccnc3c2)cc1 [SJ000311308-1] | 46.1 µM
2 | CCCc1ccc(C2=C(c3ccc([N+](=O)[O-])cc3)C(=O)OC2)cc1 [SJ000368117-1] | 69.9 µM
3 | O=C(Cn1cnc2cc(-c3ccc(Cl)cc3)sc2c1=O)NCc1ccc(F)cc1 [SJ000444020-1] | 69.9 µM
4 | N#CCCn1cnc2cc(-c3ccc(F)cc3)sc2c1=O [SJ000458551-1] | 69.9 µM
5 | Cn1c2ccccc2c2cc(C3Nc4ccccc4C(=O)N3Cc3ccccc3)ccc21 (stereo not shown) [SJ000288408-1] | 69.9 µM
6 | CCCCn1c(=O)[nH]c(=O)c2c1nc(-c1ccc(SC)cc1)n2C [SJ000382100-1] | 69.9 µM
7 | CCOc1ccc(Nc2nc(N)c3ccccc3n2)cc1 [SJ000045621-1] | 69.9 µM
8 | CCCN1C(=O)c2ccccc2NC1c1cccc(O)c1O (stereo not shown) [SJ000395233-1] | 69.9 µM
9 | COc1ccc(C)cc1Nc1nc(N)c2ccccc2n1 [SJ000201566-1] | 69.9 µM
10 | COc1cccc(CNCCCNc2ccnc3cc(CCC(C)C)ccc23)c1O [SJ000311247-1] | 69.9 µM
11 | Fc1cccc(C(F)(F)F)c1CNCCCNc1ccnc2cc(Cl)ccc12 [SJ000521031-1] | 69.9 µM
12 | COc1ccc(-c2ccc3c(NCCCNCc4cc(F)ccc4OC)ccnc3c2)cc1 [SJ000311297-1] | 69.9 µM
13 | CCCn1c(=O)[nH]c(=O)c2c1nc(-c1ccc(C#N)cc1)n2CCN1CCOCC1 [SJ000403937-1] | 69.9 µM
14 | FC(F)(F)c1cccc(CNCCCNc2ccnc3cc(C(F)(F)F)ccc23)c1 [SJ000521047-1] | 69.9 µM
15 | COc1ccc(-c2ccc3c(NCCCNCc4cccc5c4OCO5)ccnc3c2)cc1 [SJ000311296-1] | 69.9 µM
16 | COP(=O)(OC)c1nc(-c2ccc(Br)cc2)oc1N1CCOCC1 [SJ000090176-1] | 69.9 µM
17 | CCCN1C(=O)c2ccccc2NC1c1ccccc1F (stereo not shown) [SJ000288611-1] | 69.9 µM
18 | CCn1c2ccccc2c2cc(CN3CCN(C)CC3)ccc21 [SJ000142908-1] | 69.9 µM
19 | CCCOc1ccc(-c2nc3c(c(=O)[nH]c(=O)n3Cc3ccccc3)n2CCO)cc1OCC [SJ000381474-1] | 69.9 µM
20 | COc1cccc(Oc2ccc3c(NCCCNCc4cccc5c4OCO5)ccnc3c2)c1 [SJ000311216-1] | 36.9 µM
21 | COc1cccc(CNCCCNc2ccnc3cc(Cc4ccc(F)cc4)ccc23)c1O [SJ000311243-1] | 43.6 µM

Row | Structure (SMILES) | IC50
22 | CCCSc1nc2cc(-c3ccccc3)sc2c(=O)n1CCN1CCOCC1 [SJ000453419-1] | 69.9 µM
23 | COc1cccc(CNCCCNc2ccnc3cc(Oc4ccc(F)cc4)ccc23)c1O [SJ000311223-1] | 61.9 µM
24 | Cc1ccc(-c2nc3c(c(=O)[nH]c(=O)n3CC(C)C)n2CC(C)C)cc1[N+](=O)[O-] [SJ000379015-1] | 69.9 µM
25 | O=S(=O)(c1ccccc1)c1nc(-c2ccc(Br)cc2)oc1N1CCOCC1 [SJ000244320-1] | 8.63 µM
26 | COc1ccc(C(F)(F)F)cc1CNCCCNc1ccnc2cc(C(F)(F)F)ccc12 [SJ000521064-1] | 69.1 µM
27 | CC(=O)NC1=C(Cl)C(=O)c2ccccc2C1=O [SJ000067071-3] | 69.9 µM
28 | CCc1ccc(CNCCCNc2ccnc3cc(Cl)ccc23)cc1 [SJ000521039-1] | 69.9 µM
29 | CCN(CC)C(=O)Cn1cnc2cc(-c3ccccc3)sc2c1=O [SJ000425666-1] | 69.9 µM
30 | Oc1ccc(Br)cc1CNCCCNc1ccnc2cc(Cl)ccc12 [SJ000311186-1] | 69.9 µM
31 | CCc1ccc(CNCCCNc2ccnc3cc(C(F)(F)F)ccc23)cc1 [SJ000521067-1] | 40.9 µM
32 | FC(F)(F)c1ccc2c(NCCCNCc3c4ccccc4cc4ccccc34)ccnc2c1 [SJ000361126-1] | 69.9 µM
33 | Nc1nc(Nc2ccccc2O)nc2ccccc12 [SJ000192933-1] | 69.9 µM
34 | CCn1c2ccccc2c2cc(CN3CCc4nnc(C(C)NC(=O)CCOC)n4CC3)ccc21 (stereo not shown) [SJ000307915-1] | 69.9 µM
35 | COC(=O)CSc1nc2cc(-c3ccccc3)sc2c(=O)n1CCN1CCOCC1 [SJ000451551-1] | 69.9 µM
36 | O=C1C(Cl)=C(Nc2cccc(Br)c2)C(=O)c2ccccc21 [SJ000048680-1] | 69.9 µM
37 | O=S(=O)(c1ccccc1)c1nc(-c2ccc(Cl)cc2)oc1N1CCOCC1 [SJ000230691-1] | 69.9 µM
38 | O=C1c2ccccc2NC(c2ccc(F)cc2F)N1CCCN1CCOCC1 (stereo not shown) [SJ000795275-1] | 67.8 µM
39 | CCCCn1c(-c2ccc(Cl)cc2)nc2c1c(=O)[nH]c(=O)n2Cc1ccccc1 [SJ000378907-1] | 69.9 µM
40 | C=CCNC(=O)NC(=O)Cn1cnc2cc(-c3ccccc3)sc2c1=O [SJ000426777-1] | 69.9 µM
41 | CCOc1ccc(-c2nc(S(=O)(=O)c3ccccc3)c(N3CCOCC3)o2)cc1 [SJ000198209-1] | 69.9 µM
42 | Cc1ccc(C)c(Nc2nc(N)c3ccccc3n2)c1 [SJ000192944-1] | 69.9 µM

Row | Structure (SMILES) | IC50
43 | CCCCn1c(=O)[nH]c(=O)c2c1nc(-c1cccc(F)c1)n2C [SJ000415940-1] | 69.9 µM
44 | Cc1ccc(NC2=C(Cl)C(=O)c3ccccc3C2=O)cc1 [SJ000120750-1] | 69.9 µM
45 | CCCOc1ccc(C2Nc3ccccc3C(=O)N2CCCN2CCOCC2)cc1 (stereo not shown) [SJ000803758-1] | 72.1 µM
46 | FC(F)(F)c1cccc(Cc2ccc3c(NCCCNCc4cccc5c4OCO5)ccnc3c2)c1 [SJ000311300-1] | 12.8 µM
47 | C=C(C)CSc1nc2cc(-c3ccccc3)sc2c(=O)n1CCN1CCOCC1 [SJ000456069-1] | 0.861 µM
48 | Cc1ccc(Nc2nc(N)c3ccccc3n2)cc1C [SJ000202381-1] | 69.9 µM
49 | C=C1C(Cl)=C(N2CCN(S(=O)(=O)c3ccc(Cl)cc3)CC2)C(=O)c2ccccc21 [SJ000029651-1] | 69.9 µM
50 | COc1ccc(OC)c(Nc2nc(N)c3ccccc3n2)c1 [SJ000202008-1] | 69.9 µM
51 | FC(F)(F)c1ccc2c(NCCCNCc3ccccc3)ccnc2c1 [SJ000361107-1] | 69.9 µM
52 | O=C1c2ccccc2NC(c2ccc(Br)cc2)N1Cc1ccc(Cl)cc1 (stereo not shown) [SJ000508213-1] | 69.9 µM
53 | Cc1cc(C)cc(NC2=C(N)C(=O)c3ccccc3C2=O)c1 [SJ000562641-1] | 55 µM
54 | CCn1c2ccccc2c2cc(CN3CCN(C(=O)c4ccc(OC)c(OC)c4)CC3)ccc21 [SJ000298589-1] | 69.9 µM
55 | CC(=O)N(C1=C(Cl)C(=O)c2ccccc2C1=O)c1cccc(O)c1 [SJ000046178-1] | 69.9 µM
56 | FC(F)(F)c1cc(-c2ccc3c(NCCCNCc4cccc5c4OCO5)ccnc3c2)cc(C(F)(F)F)c1 [SJ000311272-1] | 9.02 µM
57 | CCCCn1c(=O)[nH]c(=O)c2c1nc(-c1ccc(C(F)(F)F)cc1)n2C [SJ000378916-1] | 69.9 µM
58 | CCCN1C(=O)c2ccccc2NC1c1ccc(Cl)c(Cl)c1 (stereo not shown) [SJ000296071-1] | 69.9 µM
59 | CSc1ccc(-c2nc3c(c(=O)[nH]c(=O)n3CC(C)C)n2CC(C)C)cc1 [SJ000394956-1] | 69.9 µM
60 | CCCN1C(=O)c2ccccc2NC1c1ccc(C)cc1 (stereo not shown) [SJ000288423-2] | 69.9 µM
61 | c1ccc(CCc2ccc3c(NCCCNCc4cccc5c4OCO5)ccnc3c2)cc1 [SJ000311257-1] | 62.3 µM

same assay, conditions: Table 5, dose response TR-FRET screening of 59 quinoline compounds against MAGE-A11:PCF11; read-out: TR-FRET IC50

Row | Structure (SMILES) | IC50
62 | Cc1ccc(F)cc1CN(CCCCNc1ccnc2cc(Cl)ccc12)Cc1ccccc1 [SJ000520449-1] | > 70 µM
63 | CCCN(CCCNc1ccnc2cc(Cl)ccc12)Cc1ccc(-c2ccccc2)cc1 [SJ000523039-1] | > 70 µM
64 | CN(C)c1cccc(Oc2ccc3c(NCCCNCc4ccco4)ccnc3c2)c1 [SJ000311230-1] | > 70 µM
65 | CCCN(CCCNc1ccnc2cc(C(F)(F)F)ccc12)CC1CC1 [SJ000361266-1] | > 70 µM
66 | FC(F)(F)c1ccc(-c2ccc3c(NCCCNCc4ccco4)ccnc3c2)cc1 [SJ000311278-1] | 22.7 µM
67 | Clc1cccc(Cl)c1Cc1ccc2c(NCCCNCc3ccco3)ccnc2c1 [SJ000311314-1] | 38.4 µM

same assay, conditions: Table 8, representative compounds; read-out: TR-FRET IC50

Row | Structure (SMILES) | IC50
68 | COC1CCCC(CNCCCNc2ccnc3cc(Cc4ccc(C#N)cc4)ccc23)C1O (stereo not shown) [SJ000311303] | 51 µM
69 | COc1ccc(OC)c2c(O)cc(C)nc12 [SJ000284975] | > 69.9 µM
70 | COc1cccc(CNCCC/N=C2/C=CNC3=CC=C(CC(C)C)C=CC32)c1O (stereo not shown) [SJ000311259] | 68.5 µM
71 | COc1ccc(OC(F)(F)F)cc1CNCCCNc1ccnc2cc(C(F)(F)F)ccc12 [SJ000521063] | 69.9 µM
72 | CC(C)CCc1ccc2c(NCCCNCc3cccc4c3OCO4)ccnc2c1 [SJ000311248] | 27.7 µM
73 | c1ccc(Cc2ccc3c(NCCCNCc4cccc5c4OCO5)ccnc3c2)cc1 [SJ000311308] | 46.1 µM
74 | CN(C)C1=C2C=CC=CC2C(CNCCCNc2ccnc3cc(Cl)ccc23)C=C1 (stereo not shown) [SJ000520354] | 69.9 µM
75 | COc1ccc(CNCCCNc2ccnc3cc(Cl)ccc23)cc1O [SJ000311192] | 69.9 µM
76 | FC(F)(F)Oc1ccc(CNCCCNc2ccnc3cc(C(F)(F)F)ccc23)cc1 [SJ000521050] | 69.9 µM
77 | COc1cccc(Oc2ccc3c(NCCCNCc4cccc5c4OCO5)ccnc3c2)c1 [SJ000311216] | 36.9 µM
78 | Fc1cccc(CNCCCNc2ccnc3cc(C(F)(F)F)ccc23)c1 [SJ000521066] | 69.9 µM
79 | COc1ccc(F)cc1CNCCCNc1ccnc2cc(Cl)ccc12 [SJ000000500] | 69.9 µM
80 | Oc1ccccc1CNCCCNc1ccnc2cc(Cl)ccc12 [SJ000311187] | 69.9 µM
81 | Fc1cccc(C(F)(F)F)c1CNCCCNc1ccnc2cc(C(F)(F)F)ccc12 [SJ000521059] | 69.9 µM
82 | COc1cccc(CNCCCNc2ccnc3cc(-c4ccccc4)ccc23)c1O [SJ000311283] | 24.1 µM
83 | COc1cccc(F)c1CNCCCNc1ccnc2cc(C(F)(F)F)ccc12 [SJ000521051] | 69.9 µM
84 | COc1cccc(CNCCCNc2ccnc3cc(Oc4ccccc4)ccc23)c1O [SJ000311207] | 69.9 µM
85 | COc1c2ccoc2nc2c(OC)c(OCC(O)C(C)O)ccc12 (stereo not shown) [SJ000121402] | > 69.9 µM
